Assay results as given in ChEMBL document CHEMBL4270488, “Antibacterial Compounds from Marine Bacteria, 2010-2015” (J Nat Prod, 2017).
≈ marks a conversion by molar mass, not a printed value. *1 amine or outer side, *2 acyl side, *3 side chain or, on linkers, in order; H or OH if unused. Where a SMILES comes first, the peptide text is derived from it. Bridges are numbered along the chain shown (N, C = ends). Roman numbers before positions name the chains, in order. [ ]: non-standard residue; d: D form. Actinocin(1to9) = Cc1c2oc3c(C)ccc(C(=O)[*:2])c3nc-2c(C(=O)[*:1])c(N)c1=O; Pro(4-oxo) = O=C1CN[C@H](C(=O)O)C1; NMeV = CN[C@H](C(=O)O)C(C)C; Sar = CNCC(=O)O

Columns and labels:
[1] = test system: Mycobacterium tuberculosis variant bovis; assay: Antibacterial activity against Mycobacterium bovis BCG str. Pasteur 1173P2 incubated for 3 days by GFP based fluorescence assay; assay type: functional; conditions: 72 h
[2] = test system: Mycobacterium tuberculosis variant bovis; assay: Antibacterial activity against Mycobacterium bovis BCG str. Pasteur 1173P2 incubated for 16 hrs; assay type: functional

| Compound | MIC [1] [µg/mL] | MIC [2] [µg/mL] |
| --- | --- | --- |
| Cc1c2oc3c(C)ccc(C(=O)N[C@@H]4C(=O)N[C@H](C(C)C)C(=O)N5CCC[C@H]5C(=O)N(C)CC(=O)N(C)[C@@H](C(C)C)C(=O)O[C@@H]4C)c3nc-2c(C(=O)N[C@@H]2C(=O)N[C@H](C(C)C)C(=O)N3CCC[C@H]3C(=O)N(C)CC(=O)N(C)[C@@H](C(C)C)C(=O)O[C@@H]2C)c(N)c1=O [DACTINOMYCIN] (I: T[dV]P[Sar][NMeV] / II: T[dV]P[Sar][NMeV]; ester I:1-I:C, II:1-II:C; linker I:N-II:N via Actinocin(1to9)) | 0.2 to 0.5 (≈ 0.159 to 0.398 µM) | – |
| Cc1c2oc3c(C)ccc(C(=O)N[C@@H]4C(=O)N[C@H](C(C)C)C(=O)N5CCC[C@H]5C(=O)N(C)CC(=O)N(C)[C@@H](C(C)C)C(=O)O[C@@H]4C)c3nc-2c(C(=O)N[C@@H]2C(=O)N[C@H](C(C)C)C(=O)N3CC(O)C[C@H]3C(=O)N(C)CC(=O)N(C)[C@@H](C(C)C)C(=O)O[C@@H]2C)c(N)c1=O (stereo not given in full) | 0.2 to 0.5 (≈ 0.157 to 0.393 µM) | – |
| COC(=O)N[C@H]1[C@@H](C)O[C@@H](O[C@H]2C/C=C(\C)[C@@H]3C=C[C@@H]4[C@@H](O[C@H]5C[C@@H](O[C@H]6C[C@@H](O)[C@@H](O[C@@H]7C[C@@H](O)[C@@H](OC)[C@H](C)O7)[C@H](C)O6)[C@@H](O)[C@H](C)O5)[C@@H](C)C[C@H](C)[C@H]4[C@]3(C)C(=O)C3=C(O)[C@@]4(C[C@@H](C)C(CO)=C[C@H]4/C=C/2C)OC3=O)C[C@]1(C)N | – | 0.8 to 1.5 (≈ 0.691 to 1.3 µM) |
| COC(=O)N[C@H]1[C@@H](C)O[C@@H](O[C@H]2C/C=C(\C)[C@@H]3C=C[C@@H]4[C@@H](O[C@H]5C[C@@H](O[C@H]6C[C@@H](O)[C@@H](O[C@@H]7C[C@@H](O)[C@@H](OC)[C@H](C)O7)[C@H](C)O6)[C@@H](O)[C@H](C)O5)[C@@H](C)C[C@H](C)[C@H]4[C@]3(C)C(=O)C3=C(O)[C@@]4(C[C@@H](C)C(CO)=C[C@H]4/C=C/2C)OC3=O)C[C@]1(C)[N+](=O)[O-] | – | 0.8 to 1.5 (≈ 0.674 to 1.26 µM) |
| Cc1c2oc3c(C)ccc(C(=O)N[C@@H]4C(=O)N[C@H](C(C)C)C(=O)N5CCC[C@H]5C(=O)N(C)CC(=O)N(C)[C@@H](C(C)C)C(=O)O[C@@H]4C)c3nc-2c(C(=O)N[C@@H]2C(=O)N[C@H](C(C)C)C(=O)N3CC(=O)C[C@H]3C(=O)N(C)CC(=O)N(C)[C@@H](C(C)C)C(=O)O[C@@H]2C)c(N)c1=O (I: T[dV][Pro(4-oxo)][Sar][NMeV] / II: T[dV]P[Sar][NMeV]; ester I:1-I:C, II:1-II:C; linker I:N-II:N via Actinocin(1to9)) | 0.2 to 0.5 (≈ 0.158 to 0.394 µM) | – |
